Reference: paper PMC2679894 (Journal of molecular biology, 2009)

Target: KsgA (Thermus thermophilus, UniProt Q5SM60)
Assay: X-ray crystal structure
Details: cofactor-binding site; co-crystallised with 4 mM adenosine and 4 mM AdoMet, 50 °C for 10 min; crystal form KsgA2

KsgA, sequence (Q5SM60 whole entry): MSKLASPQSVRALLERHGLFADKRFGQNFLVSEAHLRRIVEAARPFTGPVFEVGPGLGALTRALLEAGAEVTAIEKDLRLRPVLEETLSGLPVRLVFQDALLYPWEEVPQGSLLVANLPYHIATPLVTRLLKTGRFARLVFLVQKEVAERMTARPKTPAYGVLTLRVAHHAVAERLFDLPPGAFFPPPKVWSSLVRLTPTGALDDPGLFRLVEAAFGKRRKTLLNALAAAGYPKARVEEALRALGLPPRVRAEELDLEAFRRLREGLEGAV

## Nc1ncnc2c1ncn2[C@@H]1O[C@H](CO)[C@@H](O)[C@H]1O [adenosine]
  X-ray crystal structure: these crystals were found to have adenosine in the cofactor-binding site
